Experiments:
Assay type in all cases: in vivo
[1] = system: fleas (Ctenocephalides felis); experiment: Efficacy of soft chews against induced flea infestations on dogs (Example 2); details: for % Reduction Fleas: soft chew of Table 6, once on Day 0, dogs; for Percent reduction (efficacy) against fleas: Table 6 soft chew, treated once on Day 0, dogs
Experimental: Sixteen beagles were studied to determine the effectiveness of a soft chewable veterinary composition comprising Compound A against induced infestations of Dermacentor variabilis and Ctenocephalides felis.
Four Treatment Groups containing four dogs each were formed. Dogs in Group 1 were untreated. […] All dogs were treated once on Day 0.
All dogs were infested with approximately 100 C. felis on Days −1, 8, 15, 22, 29, 35, 43, 57 and 71. All dogs were also infested with approximately 50 D. variabilis on Days −1, 7, 14, 21, 28, 34 and 42. Both ticks and fleas were counted upon removal on Days 2, 9, 16, 23, 30, 36 and 44. Fleas were counted upon removal for all Treatment Groups on Days 58 and 72.

[2] = system: Dermacentor variabilis; experiment: Long lasting efficacy against D. variabilis on dogs (Example 6, Table 53)
Experimental: Forty two beagles were allotted to seven groups of six dogs each. Groups 1 and 2 served as untreated controls. Groups 3, 4 and 5 were each treated on Day 0 with three different compositions of the invention described in Tables 30, 31 and 32, respectively, containing Compound A in an amount to deliver a dose of about 20 mg/kg of body weight. Similarly, on Day 0, Groups 6 and 7 were each treated with the compositions described in Tables 30 and 32, respectively, containing Compound A to deliver a dose of about 20 mg/kg of body weight.
Dogs in Groups 1, 3, 4 and 5 were infested with approximately 50 A. americanum and dogs in Groups 2, 6 and 7 were infested with approximately 50 D. variabilis on Days −1, 42, 56, 70, 77, 84, 91 and 98. Dogs in Groups 1, 2, 3, 6 and 7 were also infested on Day 105. Ticks were counted upon removal at approximately 48 hours post treatment on Day 2 and 48 hours post infestation on Days 44, 58, 72, 79, 86, 93, 100 and 107. Tables 52 and 53 below show the exceptional long-lasting efficacy of the inventive compositions against A. americanum and D. variabilis.

[3] = Plasma concentration of Compound A in dogs after oral administration (FIG. 5); details: soft chews at 20 mg/kg and 40 mg/kg compared with polyethylene glycol/alcohol solution at 25 mg/kg
Description: Although the extremely high bioavailability of the chewable compositions is in part due to the physicochemical properties of the isoxazoline active agents, the high levels observed from the chewable compositions of the invention are made possible by the presence and combination of the non-active excipients, which ensure complete and predictable dissolution of the composition and maintain the active agents in solution in the digestive tract of the animal. […] This plot compares the plasma concentration of an isoxazoline active agent (Compound A) delivered from soft chewable compositions of the invention designed to deliver 20 mg/kg and 40 mg/kg of body weight with administration of a polyethylene glycol/alcohol solution of the active agent at 25 mg/kg body weight. […] This is particularly surprising since the chewable compositions are in the form of a solid that must disintegrate and completely release and solubilize the active agent for efficient absorption during digestion. One would expect the solution to provide higher bioavailability because the active agent is completely dissolved when administered.

Compound: O=C(CNC(=O)c1ccc(C2=NOC(c3cc(Cl)cc(C(F)(F)F)c3)(C(F)(F)F)C2)c2ccccc12)NCC(F)(F)F (stereo not shown) [Compound A, 4-[5-[3-chloro-5-(trifluoromethyl)phenyl]-4,5-dihydro-5-(trifluoromethyl)-3-isoxazolyl]-N-[2-oxo-2-[(2,2,2-trifluoroethyl)amino]ethyl]-1-naphthalenecarboxamide]
- % Reduction Fleas ([1]; Group 2, approximately 1.5 mg/kg, Day 2): 100.0%
- % Reduction Fleas ([1]; Group 2, approximately 1.5 mg/kg, Day 9): 100.0%
- % Reduction Fleas ([1]; Group 2, approximately 1.5 mg/kg, Day 16): 100.0%
- % Reduction Fleas ([1]; Group 2, approximately 1.5 mg/kg, Day 23): 100.0%
- % Reduction Fleas ([1]; Group 2, approximately 1.5 mg/kg, Day 30): 100.0%
- % Reduction Fleas ([1]; Group 2, approximately 1.5 mg/kg, Day 36): 99.2%
- % Reduction Fleas ([1]; Group 2, approximately 1.5 mg/kg, Day 44): 97.8%
- % Reduction Fleas ([1]; Group 2, approximately 1.5 mg/kg, Day 58): 89.4%
- % Reduction Fleas ([1]; Group 2, approximately 1.5 mg/kg, Day 72): 79.6%
- % Reduction Fleas ([1]; Group 3, approximately 2.5 mg/kg, Day 2): 100.0%
- % Reduction Fleas ([1]; Group 3, approximately 2.5 mg/kg, Day 9): 100.0%
- % Reduction Fleas ([1]; Group 3, approximately 2.5 mg/kg, Day 16): 100.0%
- % Reduction Fleas ([1]; Group 3, approximately 2.5 mg/kg, Day 23): 100.0%
- % Reduction Fleas ([1]; Group 3, approximately 2.5 mg/kg, Day 30): 100.0%
- % Reduction Fleas ([1]; Group 3, approximately 2.5 mg/kg, Day 36): 100.0%
- % Reduction Fleas ([1]; Group 3, approximately 2.5 mg/kg, Day 44): 99.3%
- % Reduction Fleas ([1]; Group 3, approximately 2.5 mg/kg, Day 58): 96.7%
- % Reduction Fleas ([1]; Group 3, approximately 2.5 mg/kg, Day 72): 94.4%
- % Reduction Fleas ([1]; Group 4, approximately 3.5 mg/kg, Day 2): 100.0%
- % Reduction Fleas ([1]; Group 4, approximately 3.5 mg/kg, Day 9): 100.0%
- % Reduction Fleas ([1]; Group 4, approximately 3.5 mg/kg, Day 16): 100.0%
- % Reduction Fleas ([1]; Group 4, approximately 3.5 mg/kg, Day 23): 100.0%
- % Reduction Fleas ([1]; Group 4, approximately 3.5 mg/kg, Day 30): 100.0%
- % Reduction Fleas ([1]; Group 4, approximately 3.5 mg/kg, Day 36): 99.6%
- % Reduction Fleas ([1]; Group 4, approximately 3.5 mg/kg, Day 44): 98.3%
- % Reduction Fleas ([1]; Group 4, approximately 3.5 mg/kg, Day 58): 95.2%
- % Reduction Fleas ([1]; Group 4, approximately 3.5 mg/kg, Day 72): 80.6%
- Percent reduction (efficacy) against fleas ([1]; through Day 44, all groups (approx. 1.5, 2.5 or 3.5 mg/kg)): above 95%
- Percent reduction (efficacy) against fleas ([1]; through Day 58, Groups 3 and 4): above 95%
- Percent reduction (efficacy) against fleas ([1]; through and including Day 30, all treatment groups (approx. 1.5, 2.5 or 3.5 mg/kg)): 100%
- % Reduction Ticks ([2]; Group 6, composition of Table 30, about 20 mg/kg once on Day 0, dogs, Day 2): 100.0%
- % Reduction Ticks ([2]; Group 6, composition of Table 30, about 20 mg/kg once on Day 0, dogs, Day 44): 100.0%
- % Reduction Ticks ([2]; Group 6, composition of Table 30, about 20 mg/kg once on Day 0, dogs, Day 58): 99.5%
- % Reduction Ticks ([2]; Group 6, composition of Table 30, about 20 mg/kg once on Day 0, dogs, Day 72): 100.0%
- % Reduction Ticks ([2]; Group 6, composition of Table 30, about 20 mg/kg once on Day 0, dogs, Day 79): 98.8%
- % Reduction Ticks ([2]; Group 6, composition of Table 30, about 20 mg/kg once on Day 0, dogs, Day 86): 100.0%
- % Reduction Ticks ([2]; Group 6, composition of Table 30, about 20 mg/kg once on Day 0, dogs, Day 93): 98.9%
- % Reduction Ticks ([2]; Group 6, composition of Table 30, about 20 mg/kg once on Day 0, dogs, Day 100): 99.4%
- % Reduction Ticks ([2]; Group 6, composition of Table 30, about 20 mg/kg once on Day 0, dogs, Day 107): 99.4%
- % Reduction Ticks ([2]; Group 7, composition of Table 32, about 20 mg/kg once on Day 0, dogs, Day 2): 100.0%
- % Reduction Ticks ([2]; Group 7, composition of Table 32, about 20 mg/kg once on Day 0, dogs, Day 44): 100.0%
- % Reduction Ticks ([2]; Group 7, composition of Table 32, about 20 mg/kg once on Day 0, dogs, Day 58): 100.0%
- % Reduction Ticks ([2]; Group 7, composition of Table 32, about 20 mg/kg once on Day 0, dogs, Day 72): 100.0%
- % Reduction Ticks ([2]; Group 7, composition of Table 32, about 20 mg/kg once on Day 0, dogs, Day 79): 100.0%
- % Reduction Ticks ([2]; Group 7, composition of Table 32, about 20 mg/kg once on Day 0, dogs, Day 86): 100.0%
- % Reduction Ticks ([2]; Group 7, composition of Table 32, about 20 mg/kg once on Day 0, dogs, Day 93): 97.9%
- % Reduction Ticks ([2]; Group 7, composition of Table 32, about 20 mg/kg once on Day 0, dogs, Day 100): 100.0%
- % Reduction Ticks ([2]; Group 7, composition of Table 32, about 20 mg/kg once on Day 0, dogs, Day 107): 100.0%
- Plasma concentration of Compound A [3]: significantly higher plasma levels

From US9931320B2, “Parasiticidal oral veterinary compositions comprising systemically-acting active agents, methods and uses thereof” (MERIAL INC., priority 2012, dated 2018)
